Results taken from patent publication US20050038111A1, “Pharmaceutical formulation comprising bicalutamide” (priority 2001, published 2005).
Structures can show the parent of a compound that is named as a salt.

Columns and labels:
[1] = pH shift dissolution test (SGF pH 1.5 then pH 6.5); type: physicochemical; settings: 1 h SGF pH 1.5 then 1 h at pH 6.5
[2] = Crystallinity assessment by X-ray powder diffraction (XRPD); type: physicochemical
Description: Dispersion prepared from a solution of bicalutamide and tamoxifen citrate.
X-ray diffraction analysis was performed according to standard methods which can be found in e.g. Bunn, C. W. (1948), Chemical Crystallography, Clarendon Press, London; or Klug, H. P. & Alexander, L. E. (1974), X-Ray Diffraction Procedures, John Wiley and Sons, New York.

tamoxifen in solution post shift [1]: approx. 80%
crystalline tamoxifen citrate by XRPD [2]: crystalline
SMILES: CC/C(=C(\c1ccccc1)c1ccc(OCCN(C)C)cc1)c1ccccc1 [tamoxifen citrate, (Z)-2-[p-(1,2-diphenylbut-1-enyl)phenoxy]ethyldimethylamine]
